Test results taken from US6932960B2, “N-substituted 3-hydroxy-4-pyridinones and pharmaceuticals containing thereof” (Bristol-Myers Squibb Pharma Company, priority 2002, dated 2005).

Tests used:
[1] = Zn(II) binding affinity of the chelator; cited from earlier work
[2] = Zn(II) binding constant (Log KZnL/[Zn][L]), literature values; assay type: physicochemical; conditions: relative to N-hydroxyacetamide

Compound	Log KZnL/[Zn][L] [1]	Log KZnL/[Zn][L] fold higher than that of N-hydroxyacetamide [2]
Cc1c(O)c(=O)ccn1C [Deferiprone, 1,2-dimethyl-3-hydroxy-4-pyridinone]	7.19	about 100 fold
CC(=O)NO [N-hydroxyacetamide]	< 5	
